These results are taken from patent US20230045421A1 (priority 2018, published 2023).

This experiment concerns HBV rcDNA. Nature of the experiment: HepDE19 assay with bDNA quantitation of HBV rcDNA. In kind it is cell-based, hepatitis B virus. In outline: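 HepDE19 cells (HepG2-derived, Tet-regulated HBV replication) were deprived of tetracycline and then exposed to compounds for 7 days at 37 °C in 0.5% DMSO, 8-point titration from 25 μM. rcDNA was quantified by bDNA and EC50/EC90 came from 4-parameter fits. CC50 was measured by CellTiter-Glo ATP content on replicate plates after 4 days.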

The mark [1] stands for this setting: HepDE19 assay, inhibition of formation of rcDNA, read-out: DE-19bDNA EC50.
Where [2] appears, read: HepDE19 assay, inhibition of formation of relaxed circular DNA (rcDNA), bDNA quantitation, read-out: DE-19bDNA EC50.
Setting [3] is: Hepatitis B virus, HepDE19, HepDE19 assay, inhibition of formation of rcDNA, read-out: DE-19bDNA EC50.

Like-named read-outs stand apart in the source and are kept apart here.

In general, EC50 refers to the concentration giving half of the maximal effect. In the case of `CCNc1ncc(C(C)N(C)C(=O)Nc2ccc(F)c(Cl)c2)c2ccccc12` (single isomer, unassigned) [Compound 240, 3-(3-Chloro-4-fluorophenyl)-1-(1-(1-(ethylamino)isoquinolin-4-yl)ethyl)-1-methylurea], the EC50 under setting [1] turned out to be 11.5 µM.
Regarding `CCN(C(=O)Nc1ccc(F)c(F)c1)C(C)c1c[nH]c(=O)c2cc(F)c(F)cc12` (single isomer, unassigned) [Compound 422, 1-(1-(6,7-Difluoro-1-oxo-1,2-dihydroisoquinolin-4-yl)ethyl)-3-(3,4-difluorophenyl)-1-ethylurea], the EC50 under setting [2] was found to be 2.8 µM.
`COCCCn1cc(C(C)N(C)C(=O)Nc2ccc(F)c(Cl)c2)c2ccccc2c1=O` (single isomer, unassigned) [Compound 200, 3-(3-Chloro-4-fluorophenyl)-1-(1-(2-(3-methoxypropyl)-1-oxo-1,2-dihydroisoquinolin-4-yl)ethyl)-1-methylurea]: the EC50 under setting [3] was found to be 0.4 µM.
Take `CC(c1c[nH]c(=O)c2ccccc12)N(C(=O)Nc1ccc(F)c(Cl)c1)C1CC1` (single isomer, unassigned) [Compound 67, 3-(3-Chloro-4-fluorophenyl)-1-cyclopropyl-1-(1-(1-oxo-1,2-dihydroisoquinolin-4-yl)ethyl)urea]: the 50% effective concentration (EC50) under setting [1] is 7.9 µM.
For `COc1ncc(CNC(=O)Nc2ccc(F)c(Cl)c2)c2ccccc12` [Compound 6, 1-(3-Chloro-4-fluorophenyl)-3-((1-methoxyisoquinolin-4-yl)methyl)urea], the 50% effective concentration (EC50) under setting [3] was found to be 9 µM.
Turning to `CC(c1cn(C)c(=O)c2ccccc12)N(C)C(=O)Nc1ccc(F)c(Cl)c1` (single isomer, unassigned) [Compound 181, 3-(3-Chloro-4-fluorophenyl)-1-methyl-1-(1-(2-methyl-1-oxo-1,2-dihydroisoquinolin-4-yl)ethyl)urea], under setting [1], the EC50 came to 1.8 µM.
The same measure, in the same setting: in the case of `CC(c1c[nH]c(=O)c2c(Cl)cccc12)N(C)C(=O)Nc1ccc(F)c(Cl)c1` (single isomer, unassigned) [Compound 168, 1-(1-(8-Chloro-1-oxo-1,2-dihydroisoquinolin-4-yl)ethyl)-3-(3-chloro-4-fluorophenyl)-1-methylurea] it was 0.07 µM.
Consider `Cc1ncc(C(C)N(C)C(=O)Nc2ccc(F)c(Cl)c2)c2ccccc12` (single isomer, unassigned) [Compound 352, 3-(3-Chloro-4-fluorophenyl)-1-methyl-1-(1-(1-methylisoquinolin-4-yl)ethyl)urea], for which the EC50 under setting [2] is 9.9 µM.
Still for that read-out and setting: in the case of `CC(c1cn(C)c(=O)c2cc(F)ccc12)N(C)C(=O)Nc1ccc(F)c(Cl)c1` (single isomer, unassigned) [Compound 302, 3-(3-Chloro-4-fluorophenyl)-1-(1-(7-fluoro-2-methyl-1-oxo-1,2-dihydroisoquinolin-4-yl)ethyl)-1-methylurea] it was 3.3 µM.
Consider `CN(Cc1cnc(OCc2ccccn2)c2ccccc12)C(=O)Nc1ccc(F)c(Cl)c1` [Compound 88, 3-(3-Chloro-4-fluorophenyl)-1-methyl-1-((1-(pyridin-2-ylmethoxy)isoquinolin-4-yl)methyl)urea], for which, under setting [3], the EC50 worked out at 1.1 µM.
With `C[C@H](c1c[nH]c(=O)c2ccccc12)N(C)C(=O)Nc1ccc(F)c(C#N)c1` [Compound 98, (R)-3-(3-Cyano-4-fluorophenyl)-1-methyl-1-(1-(1-oxo-1,2-dihydroisoquinolin-4-yl)ethyl)urea], where the note is “Hepatitis B virus, HepDE19, read-out: DE-19bDNA EC50 (μM), HepDE19 assay, inhibition of formation of rcDNA”, the EC50 was found to be 0.16 µM.
Regarding `CNC(=O)c1ncc(C(C)N(C)C(=O)Nc2ccc(F)c(Cl)c2)c2ccccc12` (single isomer, unassigned) [Compound 317, 4-(1-(3-(3-Chloro-4-fluorophenyl)-1-methylureido)ethyl)-N-methylisoquinoline-1-carboxamide], the EC50 under setting [2] was 0.077 µM.
On to `COc1ccc2c(C(C)N(C)C(=O)Nc3ccc(F)c(Cl)c3)c[nH]c(=O)c2c1` (racemic) [Compound 173, 3-(3-Chloro-4-fluorophenyl)-1-(1-(7-methoxy-1-oxo-1,2-dihydroisoquinolin-4-yl)ethyl)-1-methylurea], for which the EC50 under setting [3] was found to be 0.38 µM.
Same read-out and setting: in the case of `COc1ncc(CN(C)C(=O)Nc2ccc(F)c(C)c2)c2ccccc12` [Compound 3, 3-(4-Fluoro-3-methylphenyl)-1-((1-methoxyisoquinolin-4-yl)methyl)-1-methylurea] it was 1.1 µM.
As for `CC(c1c[nH]c(=O)c2ccccc12)N(C[C@H]1CCCO1)C(=O)Nc1ccc(F)c(Cl)c1` (single isomer, unassigned) [Compound 156], the concentration giving a half-maximal response (EC50) under setting [1] stood at 0.17 µM.
Same read-out and setting: in the case of `CC(c1c[nH]c(=O)c2ccccc12)N(CC(C)(C)CO)C(=O)Nc1ccc(F)c(Cl)c1` (single isomer, unassigned) [Compound 209, 3-(3-Chloro-4-fluorophenyl)-1-(3-hydroxy-2,2-dimethylpropyl)-1-(1-(1-oxo-1,2-dihydroisoquinolin-4-yl)ethyl)urea] it was 7.9 µM.
With `CC(c1c[nH]c(=O)c2cc(F)c(F)cc12)N(C)C(=O)Nc1ccnc(Cl)c1` (single isomer, unassigned) [Compound 419, 3-(2-Chloropyridin-4-yl)-1-(1-(6,7-difluoro-1-oxo-1,2-dihydroisoquinolin-4-yl)ethyl)-1-methylurea], the EC50 under setting [2] was 0.048 µM.
In the case of `CC(c1c[nH]c(=O)c2cc(F)c(F)cc12)N(C)C(=O)Nc1ccccc1` (single isomer, unassigned) [Compound 399, 1-(1-(6,7-Difluoro-1-oxo-1,2-dihydroisoquinolin-4-yl)ethyl)-1-methyl-3-phenylurea], for the setting “read-out: DE-19bDNA EC50, HepDE19 assay, inhibition of formation of relaxed circular DNA (rcDNA), bDNA quantitation”, the EC50 amounted to 0.11 µM.
With `CC(c1c[nH]c(=O)c2ccc(F)cc12)N(C)C(=O)Nc1ccc(F)c(Cl)c1` (single isomer, unassigned) [Compound 170, 3-(3-Chloro-4-fluorophenyl)-1-(1-(6-fluoro-1-oxo-1,2-dihydroisoquinolin-4-yl)ethyl)-1-methylurea], the EC50 under setting [1] amounted to 0.03 µM.
On to `CC(c1c[nH]c(=O)c2ccccc12)N(Cc1ccccn1)C(=O)Nc1ccc(F)c(Cl)c1` (single isomer, unassigned) [Compound 304, 3-(3-Chloro-4-fluorophenyl)-1-(1-(1-oxo-1,2-dihydroisoquinolin-4-yl)ethyl)-1-(pyridin-2-ylmethyl) urea], for which the EC50 under setting [2] came out at 9.6 µM.
Same read-out and setting: under `CC(c1c[nH]c(=O)c2ccc(F)cc12)N(CCS(N)(=O)=O)C(=O)Nc1ccc(F)c(Cl)c1` (single isomer, unassigned) [Compound 382, 2-(3-(3-Chloro-4-fluorophenyl)-1-(1-(6-fluoro-1-oxo-1,2-dihydroisoquinolin-4-yl)ethyl)ureido) ethane-1-sulfonamide] stands 0.016 µM.
As to `COCCOCCN(C(=O)Nc1ccc(F)c(Cl)c1)C(C)c1c[nH]c(=O)c2ccccc12` (single isomer, unassigned) [Compound 124, 3-(3-Chloro-4-fluorophenyl)-1-(2-(2-methoxyethoxy)ethyl)-1-(1-(1-oxo-1,2-dihydroisoquinolin-4-yl)ethyl)urea], the EC50 (read-out: DE-19bDNA EC50, HepDE19 assay, inhibition of formation of rcDNA) is 0.56 µM.
With `COc1ncc(C(C)N(CC2CC2)C(=O)Nc2ccc(F)c(Cl)c2)c2ccccc12` (single isomer, unassigned) [Compound 63, 3-(3-Chloro-4-fluorophenyl)-1-(cyclopropylmethyl)-1-(1-(1-methoxyisoquinolin-4-yl)ethyl)urea], the EC50 under setting [1] was 5.8 µM.
Still for that read-out and setting: under `COCCOCCN(C(=O)Nc1ccc(F)c(Cl)c1)C(C)c1cnc(OC)c2ccccc12` (single isomer, unassigned) [Compound 121, 3-(3-Chloro-4-fluorophenyl)-1-(2-(2-methoxyethoxy)ethyl)-1-(1-(1-methoxyisoquinolin-4-yl)ethyl)urea] stands 23 µM.
For the molecule `CC(c1cnc(CO)c2ccccc12)N(C)C(=O)Nc1ccc(F)c(Cl)c1` (single isomer, unassigned) [Compound 326, 3-(3-Chloro-4-fluorophenyl)-1-(1-(1-(hydroxymethyl)isoquinolin-4-yl)ethyl)-1-methylurea], the concentration for a half-maximal effect (EC50) under setting [2] was found to be 16 µM.
`CC(c1c[nH]c(=O)c2ccccc12)N(CC1CCN(S(C)(=O)=O)CC1)C(=O)Nc1ccc(F)c(Cl)c1` (single isomer, unassigned) [Compound 203, 3-(3-Chloro-4-fluorophenyl)-1-((1-(methylsulfonyl)piperidin-4-yl)methyl)-1-(1-(1-oxo-1,2-dihydroisoquinolin-4-yl)ethyl)urea]: the EC50 under setting [1] turned out to be 10.5 µM.
As to `CC(c1cnc(C(N)=O)c2ccccc12)N(C)C(=O)Nc1ccc(F)c(Cl)c1` (single isomer, unassigned) [Compound 329, 4-(1-(3-(3-Chloro-4-fluorophenyl)-1-methylureido)ethyl)isoquinoline-1-carboxamide], the EC50 under setting [2] stood at 0.12 µM.
Regarding `CC(c1c[nH]c(=O)c2ccccc12)N(Cc1ccncn1)C(=O)Nc1ccc(F)c(Cl)c1` (single isomer, unassigned) [Compound 321, 3-(3-Chloro-4-fluorophenyl)-1-(1-(1-oxo-1,2-dihydroisoquinolin-4-yl)ethyl)-1-(pyrimidin-4-ylmethyl)urea], the half-maximal effective concentration (EC50) under setting [2] was 19 µM.
Turning to `CC(c1cn(CCO)c(=O)c2ccccc12)N(C)C(=O)Nc1ccc(F)c(Cl)c1` (single isomer, unassigned) [Compound 205, 3-(3-Chloro-4-fluorophenyl)-1-(1-(2-(2-hydroxyethyl)-1-oxo-1,2-dihydroisoquinolin-4-yl)ethyl)-1-methylurea], the EC50 under setting [3] is 0.16 µM.
With `CCCn1cc(C(C)N(C)C(=O)Nc2ccc(F)c(Cl)c2)c2ccccc2c1=O` (single isomer, unassigned) [Compound 185, 3-(3-Chloro-4-fluorophenyl)-1-methyl-1-(1-(1-oxo-2-propyl-1,2-dihydroisoquinolin-4-yl)ethyl)urea], the EC50 under setting [1] came to 0.34 µM.
